Experimental data as given in patent US12624018B1, “Inhibitors of RIPK2 and medical uses thereof” (Odyssey Therapeutics, Inc., priority 2022, dated 2026).

biological target: T1, RIPK2 enzyme (Homo sapiens, UniProt O43353); assay: RIPK2 inhibition (ADP-Glo Kinase Assay); format: biochemical; conditions: RIPK2 5 nM, ATP 150 μM, MBP substrate, read-out: RIPK2 IC50
T1 construct: purchased Carna 09-128
Protocol: RIPK2 inhibition was measured as follows:
The V9102 ADP-Glo Kinase Assay (including ultrapure ATP, 10 mM) was purchased from Promega. Native swine MBP was used as the substrate for the reaction and was purchased from SignalChem Biotech (catalogue number M42-51N). Assay buffer used for the assay consisted of the following components: MgCl2 (final concentration of 10 mM), Brij-35 (0.01%), DTT (final concentration of 2 mM), BSA (0.05%), EGTA (final concentration of 1 mM), and HEPE (pH 7.5 at final concentration of 50 mM).
Method: In a 384 well plate, 10 nL of test compound was dispensed using Echo550 and mixed with RIPK2 enzyme (final concentration of 5 nM) in assay buffer for 30 minutes at room temperature. […] Then ADP-Glo reagent was added and incubated for 60 min at room temperature. Last, Kinase Detection Reagent was added to the mixture and incubated for 60 min. The resulting luminescent signal was measured with an Envision reader to determine the amount of ADP produced. All plates contained vehicle controls (10 nL DMSO only) as a reference for the high control (0% kinase inhibition), and wells with no RIPK2 enzyme as reference for low control (100% kinase inhibition). Data were analyzed to determine the percent inhibition of ADP production in the presence of test compound using both low and high controls.

T1 sequence (O43353 1-299 limits assumed): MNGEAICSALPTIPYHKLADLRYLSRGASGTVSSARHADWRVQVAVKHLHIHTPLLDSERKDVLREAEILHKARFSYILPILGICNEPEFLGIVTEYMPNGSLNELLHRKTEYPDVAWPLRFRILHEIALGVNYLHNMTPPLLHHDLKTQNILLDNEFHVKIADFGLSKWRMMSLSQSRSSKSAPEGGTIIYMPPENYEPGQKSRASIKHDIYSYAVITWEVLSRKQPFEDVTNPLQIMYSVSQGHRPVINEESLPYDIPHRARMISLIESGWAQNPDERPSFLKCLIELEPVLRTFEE

IC50 [nM] | SMILES
< 2.5 | Cc1c(Oc2ccnc3ccc(C(=O)NCC4COC4)cc23)ccc(CC(=O)Nc2cnn(C(C)(C)C)c2)c1F [Compound 399, 4-(4-(2-((1-(tert-butyl)-1H-pyrazol-4-yl)amino)-2-oxoethyl)-3-fluoro-2-methyl-phenoxy)-N-(oxetan-3-ylmethyl) quinoline-6-carboxamide]
< 2.5 | Cc1cc(CC(=O)Nc2cnn(C(C)(C)C)c2)c(F)cc1Oc1ccnc2ccc(C(=O)NC(C)(C)C)cc12 [Compound 456, N-(tert-butyl)-4-(4-(2-((1-(tert-butyl)-1H-pyrazol-4-yl)amino)-2-oxoethyl)-5-fluoro-2-methylphenoxy)quinoline-6-carboxamide]
< 2.5 | Cc1cc(CC(=O)Nc2cnn(C(C)(C)C)c2)c(F)cc1Oc1ccnc2ccc(C(=O)N3CCC(N)C3)cc12 (stereo not drawn) [Compound 449, 2-(4-((6-(3-aminopyrrolidine-1-carbonyl)quinolin-4-yl)oxy)-2-fluoro-5-methylphenyl)-N-(1-(tert-butyl)-1H-pyrazol-4-yl)acetamide]
< 2.5 | CNC(=O)c1cc2c(Oc3cc(F)c(CC(=O)Nc4cnn(C(C)(C)C)c4)cc3C)ccnc2cc1F [Compound 435, 4-(4-(2-((1-(tert-butyl)-1H-pyrazol-4-yl)amino)-2-oxoethyl)-5-fluoro-2-methylphenoxy)-7-fluoro-N-methylquinoline-6-carboxamide]
10.3 | CN(C)C1CCN(c2ccc3nccc(Oc4cnc(CC(=O)Nc5cnn(C(C)(C)C)c5)c(F)c4)c3c2)C1 (single isomer, unassigned) [Compound 141, N-(1-(tert-butyl)-1H-pyrazol-4-yl)-2-(5-((6-(3-(dimethylamino)pyrrolidin-1-yl)quinolin-4-yl)oxy)-3-fluoropyridin-2-yl)acetamide]
< 2.5 | Cc1cc(CC(=O)Nc2cnn(C(C)(C)C)c2)c(F)cc1Oc1ccnc2ccc(S(=O)(=O)C3CC3)cc12 [Compound 416, N-(1-(tert-butyl)-1H-pyrazol-4-yl)-2-(4-((6-(cyclopropylsulfonyl)quinolin-4-yl)oxy)-2-fluoro-5-methylphenyl)acetamide]
< 2.5 | Cc1cc(CC(=O)Nc2cnn(C(C)(C)C)c2)c(F)cc1Oc1ccnc2ccc(CC3CCNCC3)cc12 [Compound 408, N-(1-(tert-butyl)-1H-pyrazol-4-yl)-2-(2-fluoro-5-methyl-4-((6-(piperidin-4-ylmethyl)quinolin-4-yl)oxy)phenyl)acetamide]
< 2.5 | Cc1c(Oc2ccnc3ccc(C(=O)N4C[C@@H](C)O[C@@H](C)C4)cc23)ccc(CC(=O)Nc2cnn(C(C)(C)C)c2)c1F [Compound 384, N-(1-(tert-butyl)-1H-pyrazol-4-yl)-2-(4-((6-((2R,6S)-2,6-dimethyl-morpholine-4-carbonyl)quinolin-4-yl)oxy)-2-fluoro-3-methyl-phenyl) acetamide]
< 2.5 | Cc1c(Oc2ccnc3ccc(C(=O)N4CCC(O)CC4)cc23)ccc(CC(=O)Nc2cnn(C(C)(C)C)c2)c1F [Compound 357, N-(1-(tert-butyl)-1H-pyrazol-4-yl)-2-(2-fluoro-4-((6-(4-hydroxy-piperidine-1-carbonyl)quinolin-4-yl)oxy)-3-methyl-phenyl) acetamide]
4.4 | [2H]C([2H])([2H])N1CCC(Oc2ccc3nccc(Oc4cnc(CC(=O)Nc5cnn(C(C)(C)C)c5)c(F)c4)c3c2)CC1 [Compound 129, N-(1-(tert-butyl)-1H-pyrazol-4-yl)-2-(3-fluoro-5-((6-((1-(methyl-d3)piperidin-4-yl)oxy)quinolin-4-yl)oxy)pyridin-2-yl) acetamide]
< 2.5 | Cc1cc(CC(=O)Nc2cnn(C(C)(C)C)c2)ccc1Oc1ccnc2ccc(OC3CCNCC3C)cc12 (racemic) [Compound 187]
< 2.5 | Cc1cc(CC(=O)Nc2cnn(C(C)(C)C)c2)ccc1Oc1ccnc2ccc(S(=O)(=O)C(C)(C)CO)cc12 [Compound 310, N-(1-(tert-butyl)-1H-pyrazol-4-yl)-2-(4-((6-((1-hydroxy-2-methylpropan-2-yl)sulfonyl)quinolin-4-yl)oxy)-3-methylphenyl)acetamide]
< 2.5 | CN1CCC(Oc2ccc3nccc(Oc4ccc(CC(=O)Nc5cnn(C(C)(C)C)c5)c(F)c4F)c3c2)CC1 [Compound 166, N-(1-(tert-butyl)-1H-pyrazol-4-yl)-2-(2,3-difluoro-4-((6-((1-methyl-piperidin-4-yl)oxy)quinolin-4-yl)oxy)phenyl) acetamide]
< 2.5 | Cc1cc(CC(=O)Nc2cnn(C(C)(C)C)c2)ccc1Oc1ccnc2ccc(S(=O)(=O)N3CCC3)cc12 [Compound 258, 2-(4-((6-(azetidin-1-ylsulfonyl)quinolin-4-yl)oxy)-3-methylphenyl)-N-(1-(tert-butyl)-1H-pyrazol-4-yl)acetamide]
< 2.5 | Cc1c(Oc2ccnc3ccc(C(=O)N4CCC(O)C4)cc23)ccc(CC(=O)Nc2cnn(C(C)(C)C)c2)c1F (single isomer, unassigned) [Compound 351, N-(1-(tert-butyl)-1H-pyrazol-4-yl)-2-(2-fluoro-4-((6-(3-hydroxy-pyrrolidine-1-carbonyl)quinolin-4-yl)oxy)-3-methyl-phenyl) acetamide]
< 2.5 | Cc1cc(CC(=O)Nc2cnn(C(C)(C)C)c2)c(F)cc1Oc1ccnc2ccc(CN3C[C@H]4C[C@@H]3CN4)cc12 [Compound 421, 2-(4-((6-(((1R,4R)-2,5-diazabicyclo[2.2.1]heptan-2-yl)methyl)quinolin-4-yl)oxy)-2-fluoro-5-methylphenyl)-N-(1-(tert-butyl)-1H-pyrazol-4-yl)acetamide]
< 2.5 | CC(C)(C)n1cc(NC(=O)Cc2ccc(Oc3ccnc4ccc(OC5CCNCC5)cc34)c(Cl)c2)cn1 [Compound 171, N-(1-(tert-butyl)-1H-pyrazol-4-yl)-2-(3-chloro-4-((6-(piperidin-4-yloxy)quinolin-4-yl)oxy)phenyl) acetamide]
< 2.5 | COCCN(C)S(=O)(=O)c1ccc2nccc(Oc3ccc(CC(=O)Nc4cnn(C(C)(C)C)c4)c(F)c3C)c2c1 [Compound 276, N-(1-(tert-butyl)-1H-pyrazol-4-yl)-2-(2-fluoro-4-((6-(N-(2-methoxyethyl)-N-methylsulfamoyl)quinolin-4-yl)oxy)-3-methylphenyl)acetamide]
19.8 | COc1ccc2ncnc(Oc3cnc(CC(=O)Nc4cc(C(C)(C)C)cnn4)c(F)c3)c2c1 [Compound 31, N-(5-(tert-butyl)pyridazin-3-yl)-2-(3-fluoro-5-((6-methoxy-quinazolin-4-yl)oxy)pyridin-2-yl)acetamide]
< 2.5 | Cc1c(Oc2ccnc3ccc([S+](C)[O-])cc23)ccc(CC(=O)Nc2cnn(C(C)(C)C)c2)c1F (single isomer, unassigned) [Compound 324, N-(1-(tert-butyl)-1H-pyrazol-4-yl)-2-(2-fluoro-3-methyl-4-((6-(methylsulfinyl)quinolin-4-yl)oxy)phenyl)acetamide]
< 2.5 | CN1CCC(Oc2ccc3nccc(Oc4cnc(CC(=O)Nc5cc(C(C)(C)C)[nH]n5)c(F)c4)c3c2)CC1 [Compound 134, N-(5-(tert-butyl)-1H-pyrazol-3-yl)-2-(3-fluoro-5-((6-((1-methylpiperidin-4-yl)oxy)quinolin-4-yl)oxy)pyridin-2-yl)acetamide]
< 2.5 | CC(C)(C)c1cc(NC(=O)Cc2ncc(Oc3ccnc4ccc(OC5CCNCC5)cc34)cc2F)n[nH]1 [Compound 135, N-(5-(tert-butyl)-1H-pyrazol-3-yl)-2-(3-fluoro-5-((6-(piperidin-4-yloxy)quinolin-4-yl)oxy)pyridin-2-yl)acetamide]
< 2.5 | Cc1cc(CC(=O)Nc2cnn(C(C)(C)C)c2)c(F)cc1Oc1ccnc2ccc(CN3C[C@@H]4C[C@H]3CO4)cc12 [Compound 422, 2-(4-((6-(((1S,4S)-2-oxa-5-azabicyclo[2.2.1]heptan-5-yl)methyl)quinolin-4-yl)oxy)-2-fluoro-5-methylphenyl)-N-(1-(tert-butyl)-1H-pyrazol-4-yl)acetamide]
< 2.5 | Cc1cc(CC(=O)Nc2cnn(C(C)(C)C)c2)ccc1Oc1ccnc2ccc(S(N)(=O)=O)cc12 [Compound 254, N-(1-(tert-butyl)-1H-pyrazol-4-yl)-2-(3-methyl-4-((6-sulfamoylquinolin-4-yl)oxy)phenyl)acetamide]
< 2.5 | Cc1cc(CC(=O)Nc2cnn(C(C)(C)C)c2)c(F)cc1Oc1ccnc2ccc(S(=O)(=O)N3C[C@@H](C)N[C@@H](C)C3)cc12 [Compound 390, N-(1-(tert-butyl)-1H-pyrazol-4-yl)-2-(4-((6-(((3R,5S)-3,5-dimethylpiperazin-1-yl)sulfonyl)quinolin-4-yl)oxy)-2-fluoro-5-methylphenyl)acetamide]
< 2.5 | CCS(=O)(=O)c1ccc2nccc(Oc3ccc(CC(=O)Nc4cnn(C(C)(C)C)c4)cc3F)c2c1 [Compound 164, N-(1-(tert-butyl)-1H-pyrazol-4-yl)-2-(4-((6-(ethylsulfonyl)quinolin-4-yl)oxy)-3-fluorophenyl)acetamide]

same assay, conditions: RIPK2 IC50 (nM), RIPK2 5 nM, ATP 150 μM, MBP substrate

IC50 [nM] | SMILES
< 2.5 | COCCN(C)C(=O)c1ccc2nccc(Oc3cc(F)c(CC(=O)Nc4cnn(C(C)(C)C)c4)cc3C)c2c1 [Compound 368, 4-(4-(2-((1-(tert-butyl)-1H-pyrazol-4-yl)amino)-2-oxoethyl)-5-fluoro-2-methyl-phenoxy)-N-(2-methoxy-ethyl)-N-methyl-quinoline-6-carboxamide]
